From patent US6355811B1, “Polyoxypropylenepolyethylene vitamin E and preparation thereof” (priority 1998, dated 2002)

What was measured:
[1] = Anti-oxidation activity: peroxide value of linoleic acid with added sample; details: sample 0.5% in linoleic acid, stored at 40° C.
Experimental: An examination was made of the anti-oxidation activity of the polyoxypropylenepolyoxyethylene vitamin E, using linoleic acid. The linoleic acid used was a reagent purchased from Sigma, U.S.A., comprising linoleic acid 75% and linolenic acid 12.5%.
The polyoxypropylenepolyoxyethylene vitamin E(1) prepared in Example I was added at an amount of 0.5% in the linoleic acid while vitamin E, vitamin E acetate, polyoxyethylene (12EO) vitamin E, polyoxyethylene (20EO) sorbitan monostearate (TWEEN-60), and polyoxyethylene (12EO) nonylphenylether (Igepal-CO880) were also used as references. These samples were stored in an incubator maintained at 40° C. At two days and ten days after the incubation, a peroxide value was determined for each sample. In detail, in a 250 ml Erlenmeyer flask was placed 1.0 g of each of the samples, and 10 ml of chloroform were added to dissolve the sample, after which 15 ml of glacial acetic acid and 1 ml of saturated potassium iodide solution were added and a stopper was put in the flask. After being vigorously shaken, the flask was allowed to stand in a dark place for 5 min. Thereafter, the flask was added with 75 ml of distilled water and vigorously shaken. Free iodine was titrated with a 0.01 N sodium thiosulfate solution, using a starch solution as an indicator. The point at which the solution became colorless was regarded as the end point. The peroxide value was calculated as follows: [formula]
S: Amount of 0.01 N sodium thiosulfate solution consumed by sample (ml)
B: Amount of 0.01 N sodium thiosulfate solution consumed in blank test tube (ml)
F: Factor of 0.01 N sodium thiosulfate solution

[2] = system: human body; assay: Patch test, Finn Chamber method; type: in vivo; details: human brachium, ICDRG standard
Experimental: In order to confirm non-toxicity of the polyoxypropylenepolyoxyethylene vitamin E according to the present invention, a patch test was conducted on the human body according to the Finn Chamber method. The subjects of this test were all females 15-35 years old. A sample material was dropped onto the brachium of each of the subjects and a dermicel tape was bonded thereto. The skin irritations were evaluated as a response rate (%) according to an International Contact Dermatitis Research Group (ICDRG) standard after 24 or 48 hour.

[3] = system: rabbits; assay: Primary eye irritation test according to Draize; type: in vivo
Experimental: In order to evaluate the safety of the novel polyoxypropylenepolyoxyethylene vitamin E, a primary eye irritation test was conducted on rabbits as taught by Draize. The polyoxypropylenepolyoxyethylene vitamin E (5) prepared in Example V, polyoxyethylene (12EO) nonylphenylether and polyoxyethylene (20EO) sorbitan monostearate each was diluted with a 10% aqueous glycerine solution to give a 10% sample solution. This test sample was dropped onto one eye of each of 6 rabbits weighing 2-3 kg while the other eye was used as a control. 24 hours later, the average scores were recorded according to the Draize scoring for ocular lesions. If lesions were present, the time was extended; otherwise, observation was ceased.

[4] = Surface tension by the du Nuoy method; type: physicochemical; details: 0.1% aqueous solution, 20° C.
Experimental: At 20° C., 0.1% solutions of samples in water were measured for surface tension according to the du Nuoy method with the aid of a surface tension balance manufactured by Fisher Scientific.

[5] = Foaming ability and foam stability, dynamic foam test; type: physicochemical; details: 20° C.; for Foam Stability: 0.1% solution in water, foam at three minutes after stirring; for Foaming Ability: 0.1% solution in water, 1,000 rpm, 1 min
Experimental: The foaming ability and foam stability were determined according to a dynamic foam test. First, in a 2 L scaled cylinder with an inner diameter of 10 cm were charged 40 ml of a 0.1% solution of each sample in water and the solution was stirred at 1,000 rpm 20° C. for 1 min with an agimixer. The height of the foam layer thus formed was regarded as foaming ability while the ratio of the volume of the foam layer formed immediately after the stirring to the same maintained at three minutes after the stirring, was denoted as foam stability.

Row | Compound | Response Rate, 24 h [2] [%] | Response Rate, 48 h [2] [%] | Surface Tension [4] [dyne/cm] | Foam Stability [5] [%] | Foaming Ability [5] [cc] | Peroxide Values After 2 days [1] | Peroxide Values After 10 days [1] | Eye irritation, Avg. Values (Draize scoring for ocular lesions) ([3]; 10% sample solution in 10% aqueous glycerine, rabbit eye, 24 hours) | Eye irritation, Avg. Values (Draize scoring for ocular lesions) ([3]; rabbit, in vivo)
1 | CC(=O)Oc1c(C)c(C)c2c(c1C)CCC(C)(CCC[C@H](C)CCC[C@H](C)CCCC(C)C)O2 (stereo partly shown) [Acetate of vitamin E, vitamin E acetate] |  |  |  |  |  | 27.2 | 123.3 |  | 
2 | polyoxyethylene (12EO) nonylphenylether [12EO nonylphenylether] | 2.4 | 2.0 |  |  |  | 28.9 | 178.5 |  | 0.35
3 | vitamin E |  |  |  |  |  | 21.6 | 58.9 |  | 

Continued, in another order:

Row | Response Rate, 24 h [2] [%] | Response Rate, 48 h [2] [%] | Surface Tension [4] [dyne/cm] | Foam Stability [5] [%] | Foaming Ability [5] [cc] | Compound | Peroxide Values After 2 days [1] | Peroxide Values After 10 days [1] | Eye irritation, Avg. Values (Draize scoring for ocular lesions) ([3]; 10% sample solution in 10% aqueous glycerine, rabbit eye, 24 hours) | Eye irritation, Avg. Values (Draize scoring for ocular lesions) ([3]; rabbit, in vivo)
4 | 0.6 | 0.0 |  |  |  | polyoxyethylene (20EO) sorbitan monostearate [20EO sorbitan mono stearate] | 25.0 | 126.6 | 0.16 | 
5 | 1.6 | 0.8 | 56.3 | 46.5 | 125 | polyoxyethylene (12EO) vitamin E [12EO vitamin E] | 26.0 | 124.6 |  | 0.19
6 |  |  | 38.4 | 89.6 | 246 | polyoxyethylene (24EO) cholesterol [24 EO Cholesterol] |  |  |  | 
